Data reported in publication PMC10983791 (ACS chemical biology, 2023).
“Also recorded” adds a separate entry of the source. Each block holds one molecule with its values, some of them ahead of it.

What was measured:
Assay type in all cases: biochemical
GNMT [1] = biological target: T1, GNMT (Homo sapiens, UniProt Q14749); assay: KM determination by method of initial rates, GNMT; details: read-out: KM, substrate, SAM 100 μM, MTase-Glo readout
T1 sequence (Q14749 1-295): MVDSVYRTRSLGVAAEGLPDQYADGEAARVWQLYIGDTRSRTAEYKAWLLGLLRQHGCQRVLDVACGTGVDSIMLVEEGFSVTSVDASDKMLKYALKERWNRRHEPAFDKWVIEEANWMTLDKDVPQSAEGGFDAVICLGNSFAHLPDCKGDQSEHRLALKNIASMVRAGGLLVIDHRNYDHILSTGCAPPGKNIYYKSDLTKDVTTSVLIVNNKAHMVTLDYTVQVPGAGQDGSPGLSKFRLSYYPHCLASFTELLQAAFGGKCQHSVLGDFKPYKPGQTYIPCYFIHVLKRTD

HNMT [2] = biological target: T2, HNMT (Homo sapiens, UniProt P50135); assay: MTase-Glo HNMT inhibition assay; details: for HNMT activity and specificity in SAR analysis: SAR expansion of diazepine chemotype; for potency loss: relative to the best analogs with pyridine nitrogen; for activity in HTS and follow-up: MTase-Glo, top dose 40 μM
T2 sequence (P50135 whole entry): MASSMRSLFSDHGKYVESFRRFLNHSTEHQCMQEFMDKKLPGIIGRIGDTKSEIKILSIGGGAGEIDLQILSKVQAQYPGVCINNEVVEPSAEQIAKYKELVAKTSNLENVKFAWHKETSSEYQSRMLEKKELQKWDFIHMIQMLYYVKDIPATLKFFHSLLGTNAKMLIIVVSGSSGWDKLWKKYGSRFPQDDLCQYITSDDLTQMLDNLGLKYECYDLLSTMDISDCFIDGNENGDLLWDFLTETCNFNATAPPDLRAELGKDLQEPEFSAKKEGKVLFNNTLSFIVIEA

HNMT [3] = biological target: T2, HNMT; assay: LC-MS orthogonal assay, HNMT; details: for response in MS assay: LC-MS dose response
COMT [4] = biological target: T3, COMT (Homo sapiens, UniProt P21964); assay: LC-MS orthogonal assay, COMT
T3 sequence (P21964 1-271): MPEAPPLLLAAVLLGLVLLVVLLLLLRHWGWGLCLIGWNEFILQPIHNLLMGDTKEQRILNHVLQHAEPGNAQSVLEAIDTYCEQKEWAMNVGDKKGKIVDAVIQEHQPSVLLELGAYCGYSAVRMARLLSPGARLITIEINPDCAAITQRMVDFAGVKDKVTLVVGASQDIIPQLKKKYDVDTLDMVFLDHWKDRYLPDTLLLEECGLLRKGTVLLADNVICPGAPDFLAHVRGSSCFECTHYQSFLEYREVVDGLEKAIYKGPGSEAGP

NNMT [5] = biological target: T4, NNMT (Homo sapiens, UniProt P40261); assay: LC-MS orthogonal assay, NNMT
T4 sequence (P40261 1-264): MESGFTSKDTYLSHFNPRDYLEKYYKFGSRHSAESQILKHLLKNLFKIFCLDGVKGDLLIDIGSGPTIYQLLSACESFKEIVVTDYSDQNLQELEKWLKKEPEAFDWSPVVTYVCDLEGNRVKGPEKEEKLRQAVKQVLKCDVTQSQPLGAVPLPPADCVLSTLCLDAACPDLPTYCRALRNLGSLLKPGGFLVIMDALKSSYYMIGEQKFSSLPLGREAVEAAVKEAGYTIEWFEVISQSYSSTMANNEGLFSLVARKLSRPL

PNMT [6] = biological target: T5, PNMT (Homo sapiens, UniProt P11086); assay: LC-MS orthogonal assay, PNMT
T5 sequence (P11086 1-282): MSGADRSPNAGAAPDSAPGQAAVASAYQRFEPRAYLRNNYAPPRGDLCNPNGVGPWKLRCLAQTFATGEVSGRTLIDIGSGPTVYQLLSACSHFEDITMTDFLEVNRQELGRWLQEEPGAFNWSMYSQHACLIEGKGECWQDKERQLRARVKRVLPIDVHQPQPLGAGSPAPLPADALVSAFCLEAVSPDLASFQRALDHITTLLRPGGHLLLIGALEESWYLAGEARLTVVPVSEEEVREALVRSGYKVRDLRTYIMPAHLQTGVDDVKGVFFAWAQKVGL

GNMT [7] = biological target: T1, GNMT; assay: LC-MS orthogonal assay, GNMT
GNMT [8] = biological target: T1, GNMT; assay: MTase-Glo GNMT inhibition assay; details: for activity in HTS and follow-up: MTase-Glo, top dose 40 μM
PNMT [9] = biological target: T5, PNMT; assay: MTase-Glo PNMT inhibition assay; details: for activity in HTS and follow-up: MTase-Glo, top dose 40 μM
COMT [10] = biological target: T3, COMT; assay: MTase-Glo COMT inhibition assay; details: for activity in HTS and follow-up: MTase-Glo, top dose 40 μM
NNMT [11] = biological target: T4, NNMT; assay: MTase-Glo NNMT inhibition assay; details: for activity in HTS and follow-up: MTase-Glo, top dose 40 μM
GAMT = GAMT (Homo sapiens, UniProt Q14353); assay: MTase-Glo GAMT inhibition assay; details: for activity in HTS and follow-up: MTase-Glo, top dose 40 μM
[12] = system: MTase-Glo coupled reporter assay; assay: MTase-Glo counter-assay; details: 1 μM SAH in place of enzyme; for result in counter-assay replicates: two counter-assay replicates
[13] = 11-point dose response, up to 50 μM

SMILES: NCC(=O)O [Glycine]
- Km (GNMT [1]): > 500 µM

SMILES: c1ccc(Nc2cc3c(cn2)CN(Cc2c[nH]c4ccccc24)CCN3)cc1 [NCGC00411050]
- potency loss (HNMT [2]): at least 10 fold

SMILES: c1ccc(Nc2cc3c(cn2)CN(Cc2cc[nH]n2)CCN3)cc1 [NCGC00411115]
- potency loss (HNMT [2]): at least 10 fold

SMILES: Fc1ccccc1CN1CCNc2cc(Nc3cccnc3)ncc2C1 [NCGC00411168]
- HNMT activity and specificity in SAR analysis (HNMT [2]; 11-point dose response): showed best activity

SMILES: Cc1cc(-c2cc3c(cn2)CN(Cc2cccs2)CCN3)ccn1 [NCGC00411196]
- potency loss (HNMT [2]): at least 10 fold

SMILES: Oc1ccccc1CN1CCNc2cc(Nc3ccccc3)ncc2C1 [NCGC00411199]
- potency loss (HNMT [2]): at least 10 fold

SMILES: Nc1ncnc2c1ncn2[C@@H]1O[C@H](C[C@@H](N)CC[C@H](N)C(=O)O)[C@@H](O)[C@H]1O [sinefungin, reference compound]
- inhibition by positive control (HNMT [2]; [13]): inhibitable
- inhibition by positive control (GNMT [8]; [13]): All MTases except GNMT were inhibitable
- inhibition by positive control (PNMT [9]; [13]): inhibitable
- inhibition by positive control (COMT [10]; [13]): inhibitable
- inhibition by positive control (NNMT [11]; [13]): inhibitable
- inhibition by positive control (GAMT; [13]): inhibitable
- inhibition of counter-assay by positive control [12]: not inhibited

The next lines start with results.

- IC50 (HNMT [2]; read-out: IC50, MTase Glo assay): 2.45 µM
- IC50 (HNMT [3]; read-out: IC50, MS assay, LC-MS readout of SAH, n=3): 0.67 µM
- response in MS assay (COMT [4]): No response
- response in MS assay (NNMT [5]): No response
- response in MS assay (PNMT [6]): No response
- response in MS assay (GNMT [7]): No response
SMILES: c1cncc(Nc2cc3c(cn2)CN(Cc2ccsc2)CCN3)c1 [NCGC00411044]
- HNMT activity and specificity in SAR analysis (HNMT [2]; 11-point dose response): most active HNMT-selective compounds; also recorded: showed best activity

- HNMT activity and specificity in SAR analysis (HNMT [2]; 11-point dose response): potency loss
SMILES: c1cncc(Nc2cc3c(cn2)CN(CC2CCOC2)CCN3)c1 (centres unmarked) [NCGC00411147]

- HNMT activity and specificity in SAR analysis (HNMT [2]; 11-point dose response): reduce activity
SMILES: Cn1cc(CN2CCNc3cc(Nc4cccnc4)ncc3C2)cn1 [NCGC00411154]

- HNMT activity and specificity in SAR analysis (HNMT [2]; 11-point dose response): reduced specificity
SMILES: c1cncc(Nc2cc3c(cn2)CN(Cc2c[nH]c4ccccc24)CCN3)c1 [NCGC00411220]

- result in counter-assay replicates [12]: conflicting results
- response in MS assay (HNMT [3]): did not inhibit any SMMTase
- response in MS assay (COMT [4]): did not inhibit any SMMTase
- response in MS assay (NNMT [5]): did not inhibit any SMMTase
- response in MS assay (PNMT [6]): did not inhibit any SMMTase
- response in MS assay (GNMT [7]): did not inhibit any SMMTase
SMILES: COc1ccc(C(=O)Nc2cnn(-c3ncncc3N3CCC(C)CC3)c2)cc1 [NCGC00519772]
- activity in HTS and follow-up (HNMT [2]): showed activity against all of the SMMTases tested
- activity in HTS and follow-up (GNMT [8]): showed activity against all of the SMMTases tested
- activity in HTS and follow-up (PNMT [9]): showed activity against all of the SMMTases tested
- activity in HTS and follow-up (COMT [10]): showed activity against all of the SMMTases tested
- activity in HTS and follow-up (NNMT [11]): showed activity against all of the SMMTases tested
- activity in HTS and follow-up (GAMT): showed activity against all of the SMMTases tested

- result in counter-assay replicates [12]: conflicting results
- response in MS assay (HNMT [3]): did not inhibit any SMMTase
- response in MS assay (COMT [4]): did not inhibit any SMMTase
- response in MS assay (NNMT [5]): did not inhibit any SMMTase
- response in MS assay (PNMT [6]): did not inhibit any SMMTase
- response in MS assay (GNMT [7]): did not inhibit any SMMTase
SMILES: Cc1ccc(C(=O)Nc2cnn(-c3ncncc3N3CCC(C)CC3)c2)s1 [NCGC00519779]
- activity in HTS and follow-up (HNMT [2]): showed activity against all of the SMMTases tested
- activity in HTS and follow-up (GNMT [8]): showed activity against all of the SMMTases tested
- activity in HTS and follow-up (PNMT [9]): showed activity against all of the SMMTases tested
- activity in HTS and follow-up (COMT [10]): showed activity against all of the SMMTases tested
- activity in HTS and follow-up (NNMT [11]): showed activity against all of the SMMTases tested
- activity in HTS and follow-up (GAMT): showed activity against all of the SMMTases tested
